Twelve compounds from ChEMBL document CHEMBL3621203, “Discovery and Structure Enabled Synthesis of 2,6-Diaminopyrimidin-4-one IRAK4 Inhibitors” (ACS Med Chem Lett, 2015) can be followed below.

Converted amounts (≈) assume the structure as drawn. The source made the active and inactive calls. No cut-off for these calls is given here.

For the first series, the target named is Receptor-type tyrosine-protein kinase FLT3 (Homo sapiens) (UniProt P36888). The series is described as follows: Inhibition of FLT3 (unknown origin).
Chain of Receptor-type tyrosine-protein kinase FLT3 (Homo sapiens) (P36888 whole entry): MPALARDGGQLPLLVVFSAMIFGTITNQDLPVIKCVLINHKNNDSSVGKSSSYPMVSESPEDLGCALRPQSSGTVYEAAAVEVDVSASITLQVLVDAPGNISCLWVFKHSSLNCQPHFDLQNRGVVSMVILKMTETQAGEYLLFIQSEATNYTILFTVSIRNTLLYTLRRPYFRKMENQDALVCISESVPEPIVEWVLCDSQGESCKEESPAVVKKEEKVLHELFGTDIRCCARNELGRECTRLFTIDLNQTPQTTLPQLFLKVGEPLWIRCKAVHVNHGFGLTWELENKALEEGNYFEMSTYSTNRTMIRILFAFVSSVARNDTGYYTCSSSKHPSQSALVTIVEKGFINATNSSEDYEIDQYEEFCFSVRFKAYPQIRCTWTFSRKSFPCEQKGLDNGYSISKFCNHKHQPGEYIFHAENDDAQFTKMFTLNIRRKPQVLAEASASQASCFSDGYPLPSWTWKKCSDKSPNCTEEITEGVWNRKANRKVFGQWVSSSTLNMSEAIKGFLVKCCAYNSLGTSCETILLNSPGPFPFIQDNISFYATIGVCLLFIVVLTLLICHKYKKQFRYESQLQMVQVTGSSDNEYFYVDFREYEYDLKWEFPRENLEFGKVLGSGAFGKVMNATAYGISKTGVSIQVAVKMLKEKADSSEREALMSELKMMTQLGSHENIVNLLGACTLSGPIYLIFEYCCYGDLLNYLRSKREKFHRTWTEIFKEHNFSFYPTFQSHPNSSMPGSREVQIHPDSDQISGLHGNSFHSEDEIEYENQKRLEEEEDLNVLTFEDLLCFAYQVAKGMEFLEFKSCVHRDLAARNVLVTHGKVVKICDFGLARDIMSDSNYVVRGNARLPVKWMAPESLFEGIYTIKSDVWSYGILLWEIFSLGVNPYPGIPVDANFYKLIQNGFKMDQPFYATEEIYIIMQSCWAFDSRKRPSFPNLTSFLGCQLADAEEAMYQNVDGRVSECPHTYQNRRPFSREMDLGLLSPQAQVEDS
Settings: not given
On to `O=c1[nH]c(N2CCc3ccccc3C2)nc(N[C@@H]2C[C@H](CO)[C@@H](O)[C@H]2O)c1-c1nc2ccccc2s1`, for which the inhibition entry is “Active”.

System in another series: not listed separately
The series is described as follows: Kinetic solubility of the compound at pH 7. The settings on record: buffer. Type of series: physicochemical.
The compound `O=c1[nH]c(N2CCOCC2)nc(N[C@@H]2C[C@H](CO)[C@@H](O)[C@H]2O)c1-c1nc2ccccc2s1` returned a kinetic solubility of 63 µM (≈ 29 µg/mL). This lies in the double-digit micromolar range.
Same read-out and setting: the result for `O=c1[nH]c(N2CCC2)nc(N[C@@H]2C[C@H](CO)[C@@H](O)[C@H]2O)c1-c1nc2ccccc2s1` reads 23 µM (≈ 9.88 µg/mL).
On the same count and under the same terms, the result for `O=c1[nH]c(N2CCc3ccccc3C2)nc(N[C@@H]2C[C@H](CO)[C@@H](O)[C@H]2O)c1-c1nc2ccccc2s1` reads 12 µM (≈ 6.07 µg/mL).
On to `O=c1[nH]c(N2CCOCC2)nc(N[C@H]2CNC[C@H](O)C2)c1-c1nc2ccccc2s1`, for which the solubility (kinetic) turned out to be 8 µM (≈ 3.43 µg/mL).
Still for that read-out and setting: the result for `C[C@@H]1CC[C@@H](Nc2nc(N3CCOCC3)[nH]c(=O)c2-c2nc3ccccc3s2)CN1` reads 13 µM (≈ 5.55 µg/mL); that for `O=c1[nH]c(N2CCCC2)nc(N[C@@H]2C[C@H](CO)[C@@H](O)[C@H]2O)c1-c1nc2ccccc2s1`, 26 µM (≈ 11.5 µg/mL); that for `O=c1[nH]c(N2CCOCC2)nc(N[C@@H]2CCCNC2)c1-c1nc2ccccc2s1`, 21 µM (≈ 8.66 µg/mL).

System in a further series: not listed separately
The series is described as follows: Oral bioavailability in Wistar Han rat at 10 mg/kg. Type of series: ADME, organism-based. The settings on record: in vivo.
`O=c1[nH]c(N2CCOCC2)nc(N[C@@H]2C[C@H](CO)[C@@H](O)[C@H]2O)c1-c1nc2ccccc2s1` had a bioavailability of 0%.
On the same count and under the same terms, the result for `O=c1[nH]c(N2CCC2)nc(N[C@@H]2C[C@H](CO)[C@@H](O)[C@H]2O)c1-c1nc2ccccc2s1` reads 4%.
Still for that read-out and setting: the result for `O=c1[nH]c(N2CCc3ccccc3C2)nc(N[C@@H]2C[C@H](CO)[C@@H](O)[C@H]2O)c1-c1nc2ccccc2s1` reads 0%; that for `O=c1[nH]c(N2CCOCC2)nc(N[C@H]2CNC[C@H](O)C2)c1-c1nc2ccccc2s1`, 2%.
Still for that read-out and setting: to `C[C@@H]1CC[C@@H](Nc2nc(N3CCOCC3)[nH]c(=O)c2-c2nc3ccccc3s2)CN1` belongs 42%.
In the case of `O=c1[nH]c(N2CCOCC2)nc(N[C@@H]2CCCNC2)c1-c1nc2ccccc2s1`, the bioavailability worked out at 13%.

The target in another series is T1, Interleukin-1 receptor-associated kinase 4 (Homo sapiens, UniProt Q9NWZ3).
T1 sequence (Q9NWZ3 whole entry): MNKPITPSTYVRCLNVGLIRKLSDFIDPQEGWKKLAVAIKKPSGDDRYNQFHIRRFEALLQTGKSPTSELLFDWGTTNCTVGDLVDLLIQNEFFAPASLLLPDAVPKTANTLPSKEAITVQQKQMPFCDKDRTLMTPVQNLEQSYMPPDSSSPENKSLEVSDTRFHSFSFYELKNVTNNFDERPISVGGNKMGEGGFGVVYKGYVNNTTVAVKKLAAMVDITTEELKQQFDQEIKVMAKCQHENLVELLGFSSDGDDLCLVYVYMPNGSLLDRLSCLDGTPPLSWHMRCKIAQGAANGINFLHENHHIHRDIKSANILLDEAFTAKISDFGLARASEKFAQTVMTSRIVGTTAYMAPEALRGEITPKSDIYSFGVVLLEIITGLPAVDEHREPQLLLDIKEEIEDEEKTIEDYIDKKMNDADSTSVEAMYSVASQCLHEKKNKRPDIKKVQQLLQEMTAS
The series is described as follows: Inhibition of IRAK4-mediated NFkappaB activation in human THP1-XBlue cells assessed as LPS-induced secreted embryonic alkaline phosphatase activity treated 1 hr before LPS challenge measured after 5 hrs by spectrophotometer analysis. Type of series: cell-based, THP-1.
Settings: not given
On to `O=c1[nH]c(N2CCC2)nc(N[C@@H]2C[C@H](CO)[C@@H](O)[C@H]2O)c1-c1nc2ccccc2s1`, for which the half-inhibitory concentration (IC50) is 292 nM.
On the same count and under the same terms, the result for `O=c1[nH]c(N2CCc3ccccc3C2)nc(N[C@@H]2C[C@H](CO)[C@@H](O)[C@H]2O)c1-c1nc2ccccc2s1` reads 141 nM; that for `O=c1[nH]c(N2CCOCC2)nc(N[C@H]2CNC[C@H](O)C2)c1-c1nc2ccccc2s1`, 333 nM; that for `C[C@@H]1CC[C@@H](Nc2nc(N3CCOCC3)[nH]c(=O)c2-c2nc3ccccc3s2)CN1`, 580 nM.
On the same count and under the same terms, to `O=c1[nH]c(N2CCCC2)nc(N[C@@H]2C[C@H](CO)[C@@H](O)[C@H]2O)c1-c1nc2ccccc2s1` belongs 78 nM.

The next series concerns the target T1, Interleukin-1 receptor-associated kinase 4. The series is described as follows: Inhibition of IRAK4 (unknown origin) using 5FAM-RKRQGSVRRRVHCCOOH as substrate after 30 mins by IMAP assay.
Settings: not given
In turn, `CCc1nc(N[C@@H]2C[C@H](CO)[C@@H](O)[C@H]2O)c(-c2nc3ccccc3s2)c(=O)[nH]1` returned an IC50 of 972 nM.
For `C[C@H]1CC[C@@H](Nc2nc(N3CCOCC3)[nH]c(=O)c2-c2nc3ccccc3s2)CN1`, the IC50 came to 565 nM.
Still for that read-out and setting: the result for `OC[C@H]1C[C@@H](Nc2nc(NC3CC3)ncc2-c2nc3ccccc3s2)[C@H](O)[C@@H]1O` reads 470 nM; that for `O=c1[nH]c(N2CCc3ccccc3C2)nc(N[C@@H]2C[C@H](CO)[C@@H](O)[C@H]2O)c1-c1nc2ccccc2s1`, 27 nM; that for `CSc1nc(N[C@@H]2C[C@H](CO)[C@@H](O)[C@H]2O)c(-c2nc3ccccc3s2)c(=O)[nH]1`, 352 nM.
Still for that read-out and setting: to `C[C@@H]1CC[C@@H](Nc2nc(N3CCOCC3)[nH]c(=O)c2-c2nc3ccccc3s2)CN1` belongs 93 nM; to `CN(C)c1nc(N[C@@H]2C[C@H](CO)[C@@H](O)[C@H]2O)c(-c2nc3ccccc3s2)c(=O)[nH]1`, 490 nM.

System in the next series: not listed separately
The series is described as follows: Clearance in Wistar Han rat at 1 mg/kg, iv. Type of series: ADME, organism-based. Particulars: in vivo.
With `O=c1[nH]c(N2CCOCC2)nc(N[C@@H]2C[C@H](CO)[C@@H](O)[C@H]2O)c1-c1nc2ccccc2s1`, the clearance turned out to be 98 mL/min/kg.
The same measure, in the same setting: the result for `O=c1[nH]c(N2CCC2)nc(N[C@@H]2C[C@H](CO)[C@@H](O)[C@H]2O)c1-c1nc2ccccc2s1` reads 75 mL/min/kg.
On the same count and under the same terms, to `O=c1[nH]c(N2CCc3ccccc3C2)nc(N[C@@H]2C[C@H](CO)[C@@H](O)[C@H]2O)c1-c1nc2ccccc2s1` belongs 88 mL/min/kg; to `O=c1[nH]c(N2CCOCC2)nc(N[C@H]2CNC[C@H](O)C2)c1-c1nc2ccccc2s1`, 43 mL/min/kg.
As to `C[C@@H]1CC[C@@H](Nc2nc(N3CCOCC3)[nH]c(=O)c2-c2nc3ccccc3s2)CN1`, the clearance turned out to be 51 mL/min/kg.
On the same count and under the same terms, the result for `O=c1[nH]c(N2CCOCC2)nc(N[C@@H]2CCCNC2)c1-c1nc2ccccc2s1` reads 45 mL/min/kg.

System in another series: not listed separately
The series is described as follows: Apparent permeability of the compound across pig LLC-PK1 cells.
Settings: not given
Type of series: ADME, cell-based, Sus scrofa.
`O=c1[nH]c(N2CCOCC2)nc(N[C@@H]2C[C@H](CO)[C@@H](O)[C@H]2O)c1-c1nc2ccccc2s1`: the Papp turned out to be 7 ×10⁻⁶ cm/s.
The same measure, in the same setting: the result for `O=c1[nH]c(N2CCC2)nc(N[C@@H]2C[C@H](CO)[C@@H](O)[C@H]2O)c1-c1nc2ccccc2s1` reads 18 ×10⁻⁶ cm/s; that for `O=c1[nH]c(N2CCc3ccccc3C2)nc(N[C@@H]2C[C@H](CO)[C@@H](O)[C@H]2O)c1-c1nc2ccccc2s1`, 5 ×10⁻⁶ cm/s; that for `O=c1[nH]c(N2CCOCC2)nc(N[C@H]2CNC[C@H](O)C2)c1-c1nc2ccccc2s1`, 9 ×10⁻⁶ cm/s.
Same read-out and setting: the result for `C[C@@H]1CC[C@@H](Nc2nc(N3CCOCC3)[nH]c(=O)c2-c2nc3ccccc3s2)CN1` reads 15 ×10⁻⁶ cm/s.
Still for that read-out and setting: to `O=c1[nH]c(N2CCCC2)nc(N[C@@H]2C[C@H](CO)[C@@H](O)[C@H]2O)c1-c1nc2ccccc2s1` belongs 12 ×10⁻⁶ cm/s; to `O=c1[nH]c(N2CCOCC2)nc(N[C@@H]2CCCNC2)c1-c1nc2ccccc2s1`, 29 ×10⁻⁶ cm/s.
